Measurements: BigSolDB 2.1

c1ccc(-n2c3ccccc3c3ccccc32)cc1
solubility (mole fraction)
Details	283.15 K	288.15 K	293.15 K	298.15 K	303.15 K	308.15 K	313.15 K	318.15 K	323.15 K
in dimethyl carbonate	0.054	0.0631	0.0771	0.0967	0.113	0.145	0.175	0.232	0.294
in ethyl acetate	0.0902	0.109	0.125	0.14	0.162	0.197	0.238	0.286	0.337
in ethyl lactate	0.0336	0.0362	0.0422	0.0502	0.0617	0.0731	0.0916	0.111	0.139
in isobutanol	0.00379	0.00416	0.00494	0.00582	0.00684	0.00814	0.00922	0.0109	0.0133
in isobutyl acetate	0.114	0.132	0.151	0.177	0.197	0.235	0.271	0.32	0.38
in isopentanol	0.00614	0.00721	0.00852	0.0101	0.0125	0.0154	0.0201	0.0253	0.0339
in isopropyl acetate	0.0729	0.0842	0.0983	0.111	0.133	0.163	0.198	0.238	0.291
in methyl acetate	0.0727	0.0874	0.103	0.128	0.161	0.199	0.237	0.277	0.354
in n-butyl acetate	0.113	0.129	0.146	0.167	0.186	0.225	0.26	0.306	0.355
in n-pentanol	0.0091	0.0106	0.0122	0.0147	0.0173	0.0212	0.0252	0.0309	0.0417
in n-propyl acetate	0.0761	0.0873	0.101	0.119	0.139	0.16	0.194	0.231	0.278
in sec-butanol	0.00405	0.00482	0.00607	0.00774	0.00939	0.0119	0.0148	0.0202	0.0278
